Results taken from US7229987B2, “Multicyclic compounds for use as melanin concentrating hormone antagonists in the treatment of obesity and diabetes” (Eli Lilly and Company, priority 2002, dated 2007).
Where a name gives a salt, the structure may show the parent alone.

Question: With `CN1CCCC(Oc2ccc(-c3nnc(CSCCOc4ccccc4)o3)cc2)CC1` (stereo not shown) [Example 97, 1-methyl-4-{4-[5-(2-phenoxy-ethylsulfanylmethyl)-[1,3,4]oxadiazol-2-yl]-phenoxy}-azepane] as the compound, how does the melting point read?
Answer: 60 to 61 °C

Question: With `c1ccc(OCCSCc2ncc(-c3ccc(OCCCN4CCCCCC4)cc3)o2)cc1` [Example 266, 1-(3-{4-[2-(2-phenoxy-ethylsulfanylmethyl)-oxazol-5-yl]-phenoxy}-propyl)-azepane] as the compound, how does the melting point read?
Answer: 32 to 35 °C

Question: For `c1ccc(OCCSCc2nnc(-c3ccc(OCCN4CCCC4)cc3)o2)cc1` [Example 76, 2-(2-phenoxy-ethylsulfanylmethyl)-5-[4-(2-pyrrolidin-1-yl-ethoxy)-phenyl]-[1,3,4]oxadiazole], which melting point is on record?
Answer: 65 °C

Question: With `c1ccc(OCCSCc2nnc(-c3ccc(OCCCCN4CCOCC4)cc3)o2)cc1` [Example 92, 4-(4-{4-[5-(2-phenoxy-ethylsulfanylmethyl)-[1,3,4]oxadiazol-2-yl]-phenoxy}-butyl)-morpholine] as the compound, how does the melting point read?
Answer: 64 to 67 °C

Question: For `c1ccc(OCCSCc2nnc(-c3ccc(OCCCN4CCCCCC4)cc3)o2)cc1` [Example 83, 1-(3-{4-[5-(2-phenoxy-ethylsulfanylmethyl)-[1,3,4]oxadiazol-2-yl]-phenoxy}-propyl)-azepane], which melting point is on record?
Answer: 50 °C

Question: With `CN(C)CCCOc1c(Cl)cc(-c2nnc(CSCCOc3ccccc3)o2)cc1Cl.O=C(O)/C=C/C(=O)O` [Example 283, (3-{2,6-dichloro-4-[5-(2-phenoxy-ethylsulfanylmethyl)-[1,3,4]oxadiazol-2-yl]-phenoxy}-propyl)-dimethyl-amine; fumaric acid salt] as the compound, how does the melting point read?
Answer: 95 to 99 °C

Question: Which melting point does the source give for `O=C(NCCN1CCCCC1)Nc1ccc(-c2cnc(COCc3cc4ccccc4o3)o2)cc1` [Example 256, 1-{4-[2-(benzofuran-2-ylmethoxymethyl)-oxazol-5-yl]-phenyl}-3-(2-piperidin-1-yl-ethyl)-urea] here?
Answer: 102 to 104 °C

Question: For `CN(C)CCCOc1ccc(-c2nnc(CSCCOc3ccccc3)o2)cc1F.O=C(O)/C=C\C(=O)O` [Example 287, (3-{2-fluoro-4-[5-(2-phenoxy-ethylsulfanylmethyl)-[1,3,4]oxadiazol-2-yl]-phenoxy}-propyl)-dimethyl-amine; maleic acid salt], which melting point is on record?
Answer: 70 to 72 °C

Question: With `CN(C)CCCNC(=O)c1ccc(-c2nnc(CSCCOc3ccc(Cl)cc3Cl)o2)cc1` [Example 44, 4-{5-[2-(2,4-dichlorophenoxy)-ethylsulfanylmethyl]-[1,3,4]-oxadiazol-2-yl}-N-(3-dimethylaminopropyl)-benzamide] as the compound, how does the melting point read?
Answer: 140 to 141 °C

Question: Which melting point does the source give for `CN(C)CCCOc1ccc(-c2nnc(CCc3ccc4ccccc4c3)o2)cc1` (as salt: hydrochloride) [Example 205, Dimethyl-{3-[4-(5-naphthalene-2-ylethyl-[1,3,4]oxadiazol-2-yl)phenoxy]propyl}amine] here?
Answer: 208 to 210 °C

Question: With `O=C(Nc1ccc(-c2nnc(CSCCOc3ccccc3)o2)cc1)N1CCCC1` [Example 103, pyrrolidine-1-carboxylic acid {4-[5-(2-phenoxy-ethylsulfanylmethyl)-[1,3,4]oxadiazol-2-yl]-phenyl}-amide] as the compound, how does the melting point read?
Answer: 184 to 185 °C

Question: With `COc1ccc(OCCSCc2nnc(-c3ccc(OCCCN(C)C)cc3)o2)cc1` [Example 277, [3-(4-{5-[2-(4-methoxy-phenoxy)-ethylsulfanylmethyl]-[1,3,4]oxadiazol-2-yl}-phenoxy)-propyl]-dimethyl-amine] as the compound, how does the melting point read?
Answer: 77.5 to 78 °C

Question: With `c1ccc(OCCSCc2nnc(-c3ccc(OCCN4CCCCCC4)cc3)o2)cc1` [Example 86, 1-(2-{4-[5-(2-phenoxy-ethylsulfanylmethyl)-[1,3,4]oxadiazol-2-yl]-phenoxy}-ethyl)-azepane] as the compound, how does the melting point read?
Answer: 40 °C

Question: Which melting point does the source give for `CN(C)CCCCCCNC(=O)c1ccc(-c2nnc(CSCCOc3ccccc3)o2)cc1` [Example 57, N-(6-dimethylaminohexyl)-4-[5-(2-phenoxyethylsulfanylmethyl)-[1,3,4]oxadiazol-2-yl]-benzamide] here?
Answer: 86 to 93 °C

Question: For `CN(C)CCCOc1ccc(-c2nnc(CSCCOc3ccccc3)n2-c2ccccc2)cc1.O=C(O)C(=O)O` [Example 247, Dimethyl-(3-{4-[5-(2-phenoxy-ethylsulfanylmethyl)-4-phenyl-4H-[1,2,4]triazol-3-yl]-phenoxy}-propyl)-amine, oxalic acid salt], which melting point is on record?
Answer: 120 to 123 °C

Question: With `CC(C)N(CCOc1ccc(-c2nnc(CSCCOc3ccccc3)o2)cc1)C(C)C` [Example 73, diisopropyl-(2-{4-[5-(2-phenoxy-ethylsulfanylmethyl)-[1,3,4]oxadiazol-2-yl]-phenoxy}-ethyl)-amine] as the compound, how does the melting point read?
Answer: 42 to 45 °C

Question: With `COc1cc(-c2nnc(CSCCOc3ccccc3)o2)ccc1OCCCN(C)C.O=C(O)/C=C\C(=O)O` [Example 284, (3-{2-methoxy-4-[5-(2-phenoxy-ethylsulfanylmethyl)-[1,3,4]oxadiazol-2-yl]-phenoxy}-propyl)-dimethyl-amine; maleic acid salt] as the compound, how does the melting point read?
Answer: 114 to 116 °C

Question: For `CN(C)CCNC(=O)Nc1ccc(-c2cnc(CSCCOc3ccccc3)o2)cc1.O=C(O)/C=C\C(=O)O` [Example 250, 1-(2-Dimethylamino-ethyl)-3-{4-[2-(2-phenoxy-ethylsulfanylmethyl)-oxazol-5-yl]-phenyl}-urea maleate], which melting point is on record?
Answer: 105 to 107 °C

Question: Which melting point does the source give for `c1ccc(OCCSCc2nnc(-c3ccc(OCCCCN4CCSCC4)cc3)o2)cc1` [Example 94, 4-(4-{4-[5-(2-phenoxy-ethylsulfanylmethyl)-[1,3,4]oxadiazol-2-yl]-phenoxy}-butyl)-thiomorpholine] here?
Answer: 58 °C

Question: For `CN(C)CCCOc1ccc(-c2nnc(CSCCOC(C)(C)C)o2)cc1` [Example 280, (3-{4-[5-(2-tert-butoxy-ethylsulfanylmethyl)-[1,3,4]oxadiazol-2-yl]-phenoxy}-propyl)-dimethyl-amine], which melting point is on record?
Answer: 84.5 to 85.5 °C

Question: For `CN(C)CCCOc1ccc(-c2nnc(CSCCOc3ccccc3)o2)nc1` [Example 289, dimethyl-(3-{6-[5-(2-phenoxy-ethylsulfanylmethyl)-[1,3,4]oxadiazol-2-yl]-pyridin-3-yloxy}-propyl)-amine], which melting point is on record?
Answer: 47 to 49 °C

Question: Which melting point does the source give for `c1ccc(OCCSCc2nnc(-c3ccc(OCCCCN4CCCCC4)cc3)o2)cc1` [Example 81, 1-(4-{4-[5-(2-phenoxy-ethylsulfanylmethyl)-[1,3,4]oxadiazol-2-yl]-phenoxy}-butyl)-piperidine] here?
Answer: 57 to 62 °C

Question: With `c1ccc2oc(Cc3nnc(-c4ccc(OCCCN5CCCCC5)cc4)o3)cc2c1` [Example 270, 1-{3-[4-(5-Benzofuran-2-yl-methyl-[1,3,4]oxadiazol-2-yl)-phenoxy]-propyl}-piperidine] as the compound, how does the melting point read?
Answer: 76 to 79 °C

Question: Which melting point does the source give for `c1ccc(OCCSCc2nnc(-c3ccc(OCCN4CCCCC4)cc3)o2)cc1` [Example 72, 1-(2-{4-[5-(2-phenoxy-ethylsulfanylmethyl)-[1,3,4]oxadiazol-2-yl]-phenoxy}-ethyl)-piperidine] here?
Answer: 70 °C

Question: With `CN(C)CCNC(=S)Nc1ccc(-c2nnc(CSCCOc3ccccc3)o2)cc1` [Example 117, 1-(2-dimethylamino-ethyl)-3-{4-[5-(2-phenoxy-ethylsulfanylmethyl)-[1,3,4]oxadiazol-2-yl]-phenyl}-thiourea] as the compound, how does the melting point read?
Answer: 155 to 158 °C
